The values below are quoted from earlier work in US10485754B2, “Method for the production of a sodium ion-free effervescent tablet, powder or granulate having a high X ion content, where X can be a variety of substances” (BIOFAR LABORATOIRES, priority 2014, dated 2019).

Turning to `O=C([O-])[O-].[Ca+2]` [calcium carbonate], where the note is “water”, the “calcium carbonate that can be dissolved in one liter of water” value is on record as 0.014 grams in one liter of water. For the same compound, where the note is “with CO2 soda in the water”, the “calcium carbonate that can be dissolved in one liter of water with CO2” value is “up to 16.6 grams in one liter of water”.
